Experimental data published in patent US20030055065A1, “Tricyclic amide and urea compounds useful for inhibition of G-protein function and for treatment of proliferative diseases” (priority 1993, published 2003).
“And” between values parts separate entries of the source, which are not always exact repeats. Equal entries are not always repeated. Where two headings read alike, the source gives them in different places.

Columns and labels:
[1] = tested on: T24-BAG4 human bladder carcinoma cells expressing an activated H-ras gene; assay: Cell Mat Assay: tumor cell colony inhibition (tIC50); format: cell-based; details: inhibition of tumor cell growth
Experimental: (§1) Compound-induced colony inhibition was assayed by addition of serial dilutions of compound directly to the growth medium 24 h after tumor cell planting, and incubating cells for an additional 14 d to allow colony formation. Assays were terminated by rinsing monolayers twice with phosphate-buffered saline (PBS), fixing the monolayers with a 1% glutaraldehyde solution in PBS, then visualizing tumor cells by staining with X-Gal (Price, J., et al., Lineage analysis in the vertebrate nervous system by retrovirus-mediated gene transfer, Proc. Natl. Acad. Sci.84, 156-160(1987)). […] Both IC50 values were obtained by determining the density of tumor cells and mat cells by visual inspection and enumeration of cells per colony and the number of colonies under the microscope.

[2] = biological target: T1, farnesyl protein transferase (FPT), partially purified from rat brain (Rattus norvegicus, UniProt Q02293+Q04631); assay: Inhibition of farnesyl protein transferase (transfer of [3H]farnesyl to Ras-CVLS); format: biochemical
T1 construct: were partially purified from rat brain by ammonium sulfate fractionation followed by Q-Sepharose
T1 sequence (Q02293 whole entry, one chain of several): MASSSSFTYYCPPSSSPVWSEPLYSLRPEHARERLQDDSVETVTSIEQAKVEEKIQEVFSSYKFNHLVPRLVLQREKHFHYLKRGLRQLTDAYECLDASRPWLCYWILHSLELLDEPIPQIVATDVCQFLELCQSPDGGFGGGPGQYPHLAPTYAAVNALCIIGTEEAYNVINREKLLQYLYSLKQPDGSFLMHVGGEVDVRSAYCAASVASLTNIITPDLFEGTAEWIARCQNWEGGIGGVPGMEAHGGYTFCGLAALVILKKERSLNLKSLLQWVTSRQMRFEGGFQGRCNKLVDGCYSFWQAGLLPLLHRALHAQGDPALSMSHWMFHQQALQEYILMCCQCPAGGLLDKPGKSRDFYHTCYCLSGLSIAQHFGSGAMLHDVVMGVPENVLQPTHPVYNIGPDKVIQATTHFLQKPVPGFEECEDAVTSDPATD
Summary of the method: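 Partially purified farnesyl protein transferase with His6-tagged val12-Ha-Ras-CVLS substrate and [3H]farnesyl pyrophosphate, 30 min at room temperature. Stopped with SDS/TCA, precipitated Ras collected on GF/C filters; percent inhibition relative to DMSO vehicle control.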

[3] = tested on: Ras-CVLS processing in COS monkey kidney cells; assay: COS cell assay: Ras-CVLS processing (Western blot); format: cell-based; details: COS cells; for IC50: read-out: Inhibition of Ras Processing IC50
Experimental: 2. […] Effect of farnesyl protein transferase inhibitors on Ras processing and on disordered cell growth induced by transforming Ras. COS monkey kidney cells were transfected by electroporation with the plasmid pSV-SPORT (Gibco/BRL) containing a cDNA insert encoding either Ras-CVLS or Ras-CVLL, leading to transient overexpression of a Ras substrate for either farnesyl protein transferase or geranylgeranyl protein transferase I, respectively (see above). […] After 24 hours, media was removed and fresh media containing the appropriate drugs was re-added. 48 hours after electroporation cells were examined under the microscope to monitor disordered cell growth induced by transforming Ras. Cells expressing transforming Ras become more rounded and refractile and overgrow the monolayer, reminiscent of the transformed phenotype. […] Cells were lysed by homogenization and cell debris was removed by centrifugation at 2000×g for 10 min. Cellular protein was precipitated by addition of ice-cold trichloroacetic acid and redissolved in 100 μl of SDS-electrophoresis sample buffer. […] Proteins resolved on the gels were electroblotted onto nitrocellulose membranes for immunodetection. […] E., et al., (1982), Monoclonal antibodies to the p21 products of the transforming gene of Harvey murine sarcome virus and of the cellular ras gene family, J. Virol. 43: 294-304), in PBS containing 1% fetal calf serum for one hour at room temperature. After washing, membranes were incubated for one hour at room temperature with a 1:5000 dilution of secondary antibody, rabbit anti-rat IgG conjugated to horseradish peroxidase, in PBS containing 1% fetal calf serum.

[4] = tested on: Normal human HEPM fibroblasts; assay: Cell Mat Assay: density of mat cells (mIC50); format: cell-based
Experimental: as §1

[5] = Ras-CVLS farnesylation, partially purified rat brain FPT, read-out: FPT IC50
[6] = enzyme inhibition, read-out: FPT IC50
[7] = FPT IC50, Ras-CVLS farnesylation, partially purified rat brain FPT

Compound	IC50 [2, 5]	IC50 ([3]; Primates, COS) [µM]	IC50 ([4]; Homo sapiens, Fibroblast) [µM]	IC50 ([1]; Homo sapiens) [µM]	further results
O=C(Nc1ccccc1)N1CCC(C2c3ccccc3CCc3cccnc32)CC1 (stereo not drawn) [Example 367]	3.3 µM				IC50 [1]: 6.25 µM; IC50 [3]: 6.2 µM; IC50 [4]: > 50 µM
CS(=O)(=O)OCC(C(=O)N1CCC(=C2c3ccc(Cl)cc3CCc3cccnc32)CC1)c1ccccc1 (stereo not drawn) [Example 83, 8-chloro-11-[1-(2-methanesulfonyl-oxy-1-phenylethylcarbonyl)-4-piperidylidene]-6,11-dihydro-5H-benzo-[5,6]cyclohepta-[1,2-b]pyridine]	0.59 µM	7.4			
O=C(Cc1ccncc1)N1CCN(C2c3ccc(Cl)cc3CCc3cc(Br)cnc32)CC1 (stereo not drawn) [Example 426]		0.38	25		IC50 [2, 6]: 0.012 µM; IC50 [4]: > 12.5 µM
CN1CCC(CC(=O)N2CCN(C3c4ccc(Cl)cc4CCc4cc(Br)cnc43)CC2)CC1 (stereo not drawn) [Example 425-O]			6.25		IC50 [2, 6]: 0.17 µM and 0.14 µM and 0.122 µM and 0.118 µM and 0.178 µM; Toxicity in COS cells at the concentration in parentheses ([3]; (10) μM): tox (10)
O=C(Nc1cccnc1)N1CCC(C2c3ccc(Cl)cc3C=Cc3c(Cl)ccnc32)CC1 (stereo not drawn) [Example 274]	0.91 µM and 1.38 µM	8			
O=C(N[C@@H](Cc1ccc(O)cc1)C(=O)N1CCC(=C2c3ccc(Cl)cc3CCc3cccnc32)CC1)OCc1ccccc1 [Example 46]	1.2 µM				IC50 [3]: > 8 µM; IC50 [4]: > 50 µM
O=C(Nc1cccnc1)N1CCC(=C2c3ccc(Cl)cc3CCc3c(Cl)ccnc32)CC1 [Example 261]	1.3 µM	9.1			
O=C(Cc1ccc[n+]([O-])c1)N1CCN(C2c3ccc(Cl)cc3CCc3ccc[n+]([O-])c32)CC1 (stereo not drawn) [185 (5.61)]	3.8 µM	> 20			
O=C(C(=O)N1CCC(=C2c3ccc(Cl)cc3CCc3cccnc32)CC1)c1ccc([N+](=O)[O-])cc1 [Example 295]	2.4 µM	20.8			
O=C(CN1C(=O)c2ccccc2S1(=O)=O)N1CCC(=C2c3ccc(Cl)cc3CCc3cccnc32)CC1 [Example 85]	2 µM	> 37.4			
O=C(Cc1ccncc1)N1CCC(=C2c3ccc(Br)cc3CCc3cccnc32)CC1 [181 (5.48)]		1.1	> 50	< 3.1	
Cc1ccc2c(c1)CCc1cccnc1C2=C1CCN(C(=O)Cc2ccncc2)CC1 [Example 434]		< 5			FPT inhibition at the concentration in parentheses ([2]; (0.48) μM): 70 (0.48); IC50 [2, 6]: 0.26 µM
O=C(Cc1cccc(O)c1)NCC(=O)N1CCN(C2c3ccc(Cl)cc3CCc3cccnc32)CC1 (stereo not drawn) [Example 211]	8.17 µM		> 50	37	
CN(C)c1ccc(CC(=O)N2CCC(=C3c4ccc(Cl)cc4CCc4cccnc43)CC2)cc1 [Example 297]	2.71 µM		> 50	> 50	
O=C(Cc1cc[n+]([O-])cc1)N1CCN(C2c3ccc(Cl)cc3CCc3cccnc32)CC1 (stereo not drawn) [Example 425-B]			> 25	12.5	IC50 [2, 6]: 0.74 µM
O=C(c1ccc(Cl)nc1)N1CCC(=C2c3ccc(Cl)cc3CCc3cccnc32)CC1 [Example 98]	4.4 µM		> 50	50	
O=C(CCc1ccccc1)NCC(=O)N1CCN(C2c3ccc(Cl)cc3CCc3cccnc32)CC1 (stereo not drawn) [Example 217]	6.75 µM		50	37	
CC(=O)SCC(C(=O)N1CCC(=C2c3ccc(Cl)cc3CCc3cccnc32)CC1)c1ccccc1 (stereo not drawn) [Example 84]	0.29 µM	> 9.7			
O=C(CCc1ccc(O)cc1)NCC(=O)N1CCN(C2c3ccc(Cl)cc3CCc3cccnc32)CC1 (stereo not drawn) [Example 218]	9.92 µM		50	37	
O=C(/C=C/c1cccnc1)N1CCC(=C2c3ccc(Cl)cc3CCc3cccnc32)CC1 [Example 96]	4.3 µM		> 50	50	
O=C(NCc1ccccc1)N1CCC(C2c3ccc(Cl)cc3CCc3cccnc32)CC1 (stereo not drawn) [Example 318]	4.1 µM		37	37	
O=C(Cc1ccc(O)cc1)N1CCC(=C2c3ccc(Cl)cc3CCc3cccnc32)CC1 [Example 128]	3 µM		> 50	25	

Compound	IC50 [2, 5]	IC50 ([3]; Primates, COS) [µM]	IC50 ([4]; Homo sapiens, Fibroblast) [µM]	IC50 ([1]; Homo sapiens) [µM]	further results
Nc1cc2c(nc1Br)C(=C1CCN(C(=O)Cc3ccncc3)CC1)c1ccc(Cl)cc1CC2 [Example 405]			> 25	12.5	IC50 [2, 6]: 1.3 µM
O=C(Cc1cccnc1)N1CC=C(C2c3ccc(Cl)cc3CCc3cccnc32)CC1 (stereo not drawn) [Example 410-D]		18.5	> 50	10	
O=C(Cc1cccnc1)N1CCN(C2c3ccc(Cl)cc3CCc3cccnc32)CC1 (stereo not drawn) [Example 78]		< 4.6			IC50 [2, 7]: 1 µM and 0.42 µM; IC50 ([2]; FPT IC50, enzyme inhibition): 2.19 µM and 0.53 µM and 0.74 µM and 0.76 µM and 0.97 µM
CC(=O)N1CCC(C(=O)N2CCN([C@@H]3c4ccc(Cl)cc4CCc4cccnc43)CC2)CC1 [226 (5.100)]	4.1 µM		> 50	25	
O=C(C1CCCC1)N1CCC(=C2c3ccc(Cl)cc3CCc3cccnc32)CC1 [Example 157]		4.5			
O=C(Cc1ccncc1)N1CCC(=C2c3ccc(Cl)cc3C=Cc3cccnc32)CC1 [Example 307]	0.22 µM and 0.14 µM				IC50 [1]: 12.5 µM; IC50 [4]: 50 µM
O=C(Nc1cccnc1)N1CCC(C2c3ccc(Cl)cc3C=Cc3cccnc32)CC1 (stereo not drawn) [Example 267]	1.33 µM	12.5			
CN(C)c1ccc(CC(=O)N2CCN(C3c4ccc(Cl)cc4CCc4cccnc43)CC2)cc1 (stereo not drawn) [Example 189]			> 50	37	IC50 [2, 7]: 2.44 µM
O=C(Cc1ccncc1)N1CCC(C2c3ccc(Cl)cc3C=Cc3cccnc32)CC1 (stereo not drawn) [Example 269]		0.69	12.5	6.25	
O=C(Cc1cccnc1)N1CCN(C2c3ccc(Cl)cc3CCc3c(Cl)ccnc32)CC1 (stereo not drawn) [Example 355]			> 25	8	IC50 [2, 7]: 0.88 µM
CC(C)(C)c1cnc2c(c1)CCc1cc(Cl)ccc1C2=C1CCN(C(=O)Cc2ccncc2)CC1 [Example 305]					IC50 [1]: 25 µM; FPT inhibition ([2]; at 4 μM): 40% @4 μM; IC50 [4]: > 50 µM
CC(C)(C(=O)N1CCC(=C2c3ccc(Cl)cc3C=Cc3cccnc32)CC1)c1cccnc1 [Example 278]	0.88 µM	2.6			
S=C(c1ccccc1)N1CCC(=C2c3ccc(Cl)cc3CCc3cccnc32)CC1 [Example 121]	1.4 µM		> 50	50	
O=C(Cc1ccc[n+]([O-])c1)N1CCN(C2c3ccc(Cl)cc3CCc3cc(Br)cnc32)CC1 (stereo not drawn) [Example 425-K]			> 25	6.25	IC50 ([2]; FPT IC50, enzyme inhibition): 0.4 µM and 0.41 µM
O=C(Cc1cccnc1)N1CCN([C@H]2c3ccc(Cl)cc3CCc3cccnc32)CC1 [223 (5.97)]			> 50	8	IC50 [2, 7]: 0.19 µM and 0.72 µM and 0.61 µM
O=C(Cc1cccnc1)N1CCC(=C2c3ccc(Cl)cc3CCc3ccc[n+]([O-])c32)CC1 [Example 229]	4.38 µM		> 50	37	
O=C(Cc1ccncc1)N1CCC(=C2c3ccc(Cl)cc3CCc3ccc[n+]([O-])c32)CC1 [230 (5.105)]					IC50 [1]: 37 µM; IC50 [3]: > 20 µM; IC50 [4]: > 50 µM
CC(C)(C(=O)N1CCN(C2c3ccc(Cl)cc3CCc3cccnc32)CC1)c1cccnc1 (stereo not drawn) [Example 198]		6.1	> 50	12.5	
CS(=O)(=O)c1ccc(C(=O)N2CCC(=C3c4ccc(Cl)cc4CCc4cccnc43)CC2)cc1 [Example 93]	3.9 µM		> 50	40	
CC(C(=O)N1CCN(C2c3ccc(Cl)cc3CCc3cccnc32)CC1)c1cccnc1 (stereo not drawn) [Example 191]	4.9 µM		50	< 3.1	
CC(C)(C(=O)N1CCN(C2c3ccc(Cl)cc3CCc3cccnc32)CC1)c1ccccc1 (stereo not drawn) [Example 190]	3.3 µM		> 50	> 50	
O=C(Cc1ccccc1O)NCC(=O)N1CCN(C2c3ccc(Cl)cc3CCc3cccnc32)CC1 (stereo not drawn) [Example 212]	7.92 µM		37	25	
